Patent US20040138199A1, “Benzoxazines and derivatives thereof as therapeutic agents” (priority 2002, published 2004)

target: T1, p101/p110γ protein (PI3Kγ) (Homo sapiens, UniProt P48736); assay: PI3Kγ In Vitro Kinase Assay; type: biochemical; conditions: purified recombinant p101/p110γ with G protein β1/γ2 subunits; 20 μM ATP, 25 μM PIP2; 20 minutes at room temperature; radioactive PIP3 readout
T1 construct: HA; made in house; host or cells: Spodoptera frugiperda (Sf9) cells, baculovirus coinfection
Method in brief: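 Baculovirus/Sf9-expressed p101/p110γ (~2.7 nM) with G protein β1/γ2, 20 μM ATP plus [γ-32P]ATP, PIP2/PE micelles (25 μM PIP2, 300 μM PE, 10 mM MgCl2) in HEPES buffer. Reaction 20 min at room temperature, stopped with H3PO4; radiolabelled PIP3 counted on filters to derive IC50 (μM).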

T1 sequence (P48736 whole entry, species assumed): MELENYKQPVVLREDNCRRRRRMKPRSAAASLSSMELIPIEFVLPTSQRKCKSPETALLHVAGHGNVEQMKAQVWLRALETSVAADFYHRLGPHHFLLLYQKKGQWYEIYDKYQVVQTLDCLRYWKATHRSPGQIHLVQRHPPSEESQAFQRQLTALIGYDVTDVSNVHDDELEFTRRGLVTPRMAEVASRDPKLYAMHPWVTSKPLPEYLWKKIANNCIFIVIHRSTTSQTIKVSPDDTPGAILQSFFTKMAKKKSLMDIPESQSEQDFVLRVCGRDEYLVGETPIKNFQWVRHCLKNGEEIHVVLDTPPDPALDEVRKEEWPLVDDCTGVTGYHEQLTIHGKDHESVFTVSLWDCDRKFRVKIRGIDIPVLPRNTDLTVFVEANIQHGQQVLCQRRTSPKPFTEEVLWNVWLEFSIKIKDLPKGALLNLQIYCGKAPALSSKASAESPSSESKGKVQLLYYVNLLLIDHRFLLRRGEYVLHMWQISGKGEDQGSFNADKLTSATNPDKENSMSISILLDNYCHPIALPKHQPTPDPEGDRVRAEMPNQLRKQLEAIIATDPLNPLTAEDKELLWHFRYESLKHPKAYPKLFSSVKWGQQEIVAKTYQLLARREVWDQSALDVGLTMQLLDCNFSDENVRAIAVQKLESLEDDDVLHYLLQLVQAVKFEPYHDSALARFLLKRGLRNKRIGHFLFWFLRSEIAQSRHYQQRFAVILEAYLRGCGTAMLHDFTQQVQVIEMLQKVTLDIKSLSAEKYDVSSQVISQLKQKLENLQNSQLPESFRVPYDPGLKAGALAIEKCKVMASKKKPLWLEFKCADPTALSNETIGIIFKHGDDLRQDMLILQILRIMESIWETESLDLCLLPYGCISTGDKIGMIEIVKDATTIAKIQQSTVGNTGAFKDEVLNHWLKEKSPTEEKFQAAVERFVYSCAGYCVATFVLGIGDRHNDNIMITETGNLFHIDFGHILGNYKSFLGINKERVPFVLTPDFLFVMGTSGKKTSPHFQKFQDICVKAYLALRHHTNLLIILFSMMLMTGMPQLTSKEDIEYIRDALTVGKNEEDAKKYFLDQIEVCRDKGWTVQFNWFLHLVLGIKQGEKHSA
T1 sequence (Q8WYR1 whole entry partner, species assumed): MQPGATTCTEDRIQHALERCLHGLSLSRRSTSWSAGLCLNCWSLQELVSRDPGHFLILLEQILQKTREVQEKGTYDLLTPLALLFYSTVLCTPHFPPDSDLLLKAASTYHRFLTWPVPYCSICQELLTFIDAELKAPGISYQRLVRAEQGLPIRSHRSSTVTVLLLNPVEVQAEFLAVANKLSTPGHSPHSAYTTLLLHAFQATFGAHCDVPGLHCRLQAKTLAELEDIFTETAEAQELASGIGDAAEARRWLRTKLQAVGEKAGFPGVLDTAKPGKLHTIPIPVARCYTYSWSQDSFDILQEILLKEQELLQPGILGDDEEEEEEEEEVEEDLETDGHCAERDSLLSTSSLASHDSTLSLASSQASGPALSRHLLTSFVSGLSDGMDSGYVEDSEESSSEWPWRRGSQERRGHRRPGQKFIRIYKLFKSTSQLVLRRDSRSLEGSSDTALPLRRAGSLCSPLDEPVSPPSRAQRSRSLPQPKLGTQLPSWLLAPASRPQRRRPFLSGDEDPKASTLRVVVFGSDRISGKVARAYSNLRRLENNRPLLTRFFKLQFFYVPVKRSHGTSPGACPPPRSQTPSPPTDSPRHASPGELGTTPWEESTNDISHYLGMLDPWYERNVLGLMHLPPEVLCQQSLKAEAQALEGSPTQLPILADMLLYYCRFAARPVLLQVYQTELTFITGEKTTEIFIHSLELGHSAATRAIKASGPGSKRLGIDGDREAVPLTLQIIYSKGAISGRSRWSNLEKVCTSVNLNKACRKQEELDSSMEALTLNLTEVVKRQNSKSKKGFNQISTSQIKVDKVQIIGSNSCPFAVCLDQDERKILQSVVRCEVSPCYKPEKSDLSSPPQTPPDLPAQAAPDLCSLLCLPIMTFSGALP

| IC50 | Structure (SMILES) |
| --- | --- |
| 3 nM | O=C1NC(=S)SC1=Cc1ccc2c(c1)N(C(=O)Oc1ccccc1)CCO2 [Example 17, 6-(4-Oxo-2-thioxo-thiazolidin-5-ylidenemethyl)-2,3-dihydro-1,4-benzoxazine-4-carboxylic acid phenyl ester] |
| 20 nM | COC(=O)CCC(=O)N1CCOc2ccc(C=C3SC(=S)NC3=O)cc21 [Example 101, 4-Oxo-4-[6-(4-oxo-2-thioxo-thiazolidin-5-ylidenemethyl)-2,3-dihydro-1,4-benzoxazin-4-yl]-butyric acid methyl ester] |
| 25 nM | CCCCCCCCC(=O)N1CCOc2ccc(C=C3SC(=S)NC3=O)cc21 [Example 98, 5-[4-(4-Nonanoyl)-3,4-dihydro-2H-1,4-benzoxazin-6-ylmethylene]-2-thioxo-thiazolidin-4-one] |

The remaining lines, values behind:

| Structure (SMILES) | IC50 |
| --- | --- |
| O=C1NC(=S)SC1=Cc1ccc2c(c1)N(C(=O)c1ccc3nonc3c1)CCO2 [Example 61, 5-[4-(Benzofurazan-5-carbonyl)-3,4-dihydro-2H-1,4-benzoxazin-6-ylmethylene]-2-thioxo-thiazolidin-4-one] | 560 nM |
| COc1cccc(NC(=O)N2CCOc3ccc(C=C4SC(=S)NC4=O)cc32)c1 [Example 59, 6-(4-Oxo-2-thioxo-thiazolidin-5-ylidenemethyl)-2,3-dihydro-1,4-benzoxazine-4-carboxylic acid (3-methoxy-phenyl)-amide] | 125 nM |
| O=C1NC(=S)SC1=Cc1ccc2c(c1)N(C(=O)Cc1ccc3ccccc3c1)CCO2 [Example 11, 5-[4-(2-Naphthalen-2-yl-acetyl)-3,4-dihydro-2H-benzo[1,4]oxazine-6-ylmethylene]-2-thioxo-thiazolidin-4-one] | 53 nM |
| CC(C)C(=O)N1CCOc2ccc(C=C3SC(=S)NC3=O)cc21 [Example 31, 5-(4-Isobutyryl-3,4-dihydro-2H-1,4-benzoxazin-6-ylmethylene)-2-thioxo-thiazolidin-4-one] | 9 nM |
